Results on three compounds are retold here after PMC5656322, “BAK1 is involved in AtRALF1-induced inhibition of root cell expansion” (PLoS Genetics, 2017).

Like-named read-outs stand apart in the source and are kept apart here. Where no end group is shown, it is not given here. acridinium ester = acridinium ester label conjugated to the N-terminus of the peptide

The subject of assay [1] is intact Arabidopsis seedlings. Put plainly: Binding assay with acridinium-labeled AtRALF1, intact seedlings. The arrangement: species or system Arabidopsis thaliana. As to conditions: for reduction of total acriAtRALF1 binding vs wild-type: 7 nM, 4 °C. As for the experimental part:
(§1) (A) Whole seedlings (5 days old) were treated for 15 min with acriAtRALF1 (acriR1), acriR1 and an excess of unlabeled AtRALF34 (R34), RALF1(9–49) [(R-9-49)], or AtRALF1 (R1), as indicated. The values are the mean ± SD of two measurements (5 seedlings each). (B) Microsomal fractions from wild-type and bak1 mutants were incubated for 15 min with acriAtRALF1 (acriR1), with acriR1 and an excess of unlabeled RALF1(9–49) [(R-9-49)], or with AtRALF1 (R1), as indicated. The values are the mean ± SD of two measurements. The proportions of labeled: unlabeled proteins are shown in parentheses. Single and triple asterisks indicate P < 0.1 and P < 0.01 (Student’s t test).
(§2) Arabidopsis seedlings were grown for 5 days on vertical plates. Roots were homogenized in extraction buffer [300 mM sucrose, 100 mM Tris-HCl pH 7.5, 25 mM EDTA, 25 mM NaF, 1 mM Na2MoO4, 1 mM PMSF and protease inhibitor cocktail (Roche), adjusted to pH 6.2], and the homogenate was spun at 2,000 x g for 10 min at 4 °C. The supernatant was recovered and centrifuged at 100,000 x g for 50 min at 4 °C to precipitate the microsomal pellet. The pellet was resuspended in the extraction buffer plus 0.5% Triton-X. Seedlings or microsomal fractions were placed in 200 μl of medium and incubated with 7 nM acridinium-labeled peptide (acriAtRALF1 or acriAtRALF34) and different concentrations of AtRALF1, AtRALF34 or RALF1(9–49) for 15–20 min at 4 °C on a shaker. After incubation, the seedlings or microsomal fractions were washed three times with the same medium. Unless indicated otherwise, five entire seedlings and approximately 10 ng of microsomal fractions were used per treatment. The resulting luminescence emissions from the acridinium were measured using a microplate reader (Biotec ELx 800) at 2 s after injecting 50 μl of a solution containing 20 mM H2O2 in 0.1 M NaOH. These experiments were repeated at least three times using independent biological replicates. Duplicates were used for each concentration or treatment. The data shown are from one representative experiment.
Supplementary file pgen.1007053.s017.pdf: S17 Fig Analyses of acridinium-labeled AtRALF1 (acriAtRALF1) and binding of acriAtRALF1 in bak1-4 and fer4 mutants. (A) The Ca^2+ mobilization assay comparing the acriAtRALF1 activity with the AtRALF1 peptide. A total of 20 time-points per treatment were measured over 160 sec and summed. The results are the means ± SD of two measurements. (B) acriAtRALF1 binding in whole seedlings and only in roots of Arabidopsis. The roots were excised just before measurements. Ctr, seedlings treated with unlabeled AtRALF1. (C) Whole seedlings (5 days old) were treated for 20 min with acriAtRALF1 (acriR1), acriR1 and an excess of unlabeled AtRALF1 (R1), as indicated. The values are the mean ± SD of three measurements (5 seedlings each). The proportions of labeled: unlabeled proteins are shown in parentheses. Triple asterisks indicates P < 0.001 (Student’s t test). (PDF) Click here for additional data file.
Supplementary file pgen.1007053.s018.pdf: S18 Fig Binding of acridinium-labeled AtRALF1 and AtRALF34 to intact Arabidopsis seedlings. (A) bak7 seedlings (5 days old) were treated for 15 min with acriAtRALF1 (acriR1), acriR1 and an excess of unlabeled AtRALF1 (R1), as indicated. (B) bak1 seedlings (5 days old) were treated for 15 min with acriAtRALF34 (acriR34), acriR34 and an excess of unlabeled AtRALF34 (R34) or AtRALF1 (R1), as indicated. The proportions of labeled: unlabeled proteins are shown in parentheses. The values are the mean ± SD of two measurements (5 seedlings each). (PDF) Click here for additional data file.

Assay [2] relates to microsomal fractions from the roots of Arabidopsis. Put plainly: Binding assay with acridinium-labeled AtRALF1, microsomal fractions. More on the design: species or system Arabidopsis thaliana. The method, then: as §1, §2
Assay [3] has as its system cytosolic Ca^2+ in Arabidopsis seedlings. Put plainly: Ca^2+ mobilization assay (apoaequorin luminescence). Type of assay: in vivo, Arabidopsis thaliana. The settings on record: acriAtRALF1 vs unlabeled AtRALF1, apoaequorin seedlings (S17A Fig). As for the experimental part:
The cytoplasmic Ca^2+ assay was performed in Arabidopsis seedlings as described previously. Changes in Ca^2+ levels were measured using an Arabidopsis line homozygous for the single insertion of a transgene encoding a cytoplasmically expressed apoaequorin protein driven by the constitutive promoter 35S [53], here denoted Wt-aeq. Wt-aeq plants were crossed with bak1-3 mutants, and T3 generation plants overexpressing apoaequorin and containing a T-DNA insertion in the BAK1 gene, named bak1-3-aeq, were selected and evaluated using semi-quantitative RT-PCR with specific primers (S1 Table). Arabidopsis seedlings were grown in plates for 4 days. A single seedling was transferred into each well of a 96-well white microplate (Thermo Labsystems) containing 200 μl of medium supplemented with […] coelenterazine cp (Biotium) and incubated in the dark at 24 °C for 16 h. Each well containing a single seedling received recombinant AtRALF1 or acridinium-labeled AtRALF1 at a final concentration of 5, 10 or 100 nM as indicated. The resulting luminescence emission was monitored using a microplate reader (Biotec ELx 800) and 20 time-points for approximately 160 s. The experiments were repeated at least three times using independent biological replicates. The data shown are from one representative experiment.

In assay [4] the test system is cell suspensions. As to conditions: ref [5]; cited from earlier work.
Assay [5] relates to Arabidopsis seedlings, primary root. Nature of the assay: Root growth inhibition assay, liquid medium, 24-well plates. Type of assay: in vivo, Arabidopsis thaliana. The settings on record: 10 μM, 2 days; bak1-1, bak1-3 and bak1-4 mutants. As for the experimental part:
(§3) (A) and (B) Arabidopsis seedlings (2 days old) were treated with 10 μM AtRALF1 or water (H20) for 2 days. The values are the mean ± SD of at least 25 seedlings. Triple asterisks indicate P < 0.01 (Student’s t test); ns, not significant. (C) Four-day-old seedlings were transferred to media containing different concentrations of AtRALF1, and the primary root length was measured after 8 days of treatment. The data represent the mean value ± SD of 30 seedlings. […] Representative Arabidopsis seedlings after 8 days of treatment with AtRALF1 are shown below. Seedlings were arranged on plates after the treatment for imaging. Scale bars, 1 cm. (D) Two-day-old seedlings were treated with 10 μM AtRALF1 or water for 2 days, and root cell length was measured after 2 days of treatment. Cells from the root endodermis in the differentiation zone were measured. The values are the mean ± SD of approximately 150 cells. Triple asterisks indicate P < 0.01 (Student’s t test); ns, not significant.
(§4) Aliquots of 1 ml of medium containing seeds were distributed into 24-well plates. The peptides (10 μM) were added after 2 days, and the root length was measured 2 days after treatment. To maximize root growth, the seeds were germinated in vertical plates. […] The root length was measured 8 days after treatment unless stated otherwise. Control plants were grown under identical conditions in a peptide-free medium. Quantitative data were obtained as previously described. The experiments were repeated at least 3 times using independent biological replicates with similar results. The data from one representative experiment are shown. For cell length measurements, AtRALF1 peptide (10 μM) was added after 2 days of germination, and the cell length was measured after 2 days of treatment. The cell wall was stained with a 1 mg ml^-1 propidium iodide solution (Sigma) in the dark for 15 min and washed twice with water. Cells of the endodermis of the root differentiation zone were imaged and measured using confocal microscopy (Olympus FV1000). Approximately 30 plants from each genetic background and at least 5 cells per root were measured. The wavelengths for excitation and emission were 555 and 655 nm, respectively. Image processing was completed using the Olympus FluoView software.
Arabidopsis seedlings (2-days-old) were treated with 10 μM AtRALF1 or water (H20) for 2 days. The values are the mean ± SD of at least 25 seedlings. Triple asterisks indicate P < 0.01 (Student’s t test); ns, not significant. (PDF) Click here for additional data file.
Supplementary file pgen.1007053.s002.pdf: S2 Fig Loss-of-function bak1 mutants are sensitive to the inhibitory activity of AtRALF23/34 on root growth. Arabidopsis seedlings (2-day-old) were treated with 10 μM RALF1(9–49), RALF1(I6A), AtRALF1, AtRALF23 and AtRALF34 or water (H20) for 2 days. The values are the mean ± SD of at least 20 seedlings. […] (PDF) Click here for additional data file.

For assay [6] the test system is unchanged. As to conditions: wild-type Arabidopsis; ref [5]; cited from earlier work. As for the experimental part: To better understand the role of AtRALF1 and BRs in regulating cell expansion, we exposed different mutants and transgenic Arabidopsis plants with altered BR signaling pathways to the peptide hormone AtRALF1 at concentrations that inhibit root growth. Loss-of-function mutants (bri1-301, bsk3-2 and bak1-4), gain-of-function mutants (sud1, bes1-D and bzr1-D) and two overexpressor lines (BRI OX and DWF4 OX) were used in the root growth assays in the presence or absence of 10 μM AtRALF1 (Fig 1A).

For assay [7] the test system is unchanged. Nature of the assay: Root growth inhibition assay, vertical plates. Type of assay: in vivo, Arabidopsis thaliana. As to conditions: bak1 mutants, 0.1 μM, 8 days. As for the experimental part:
as §3
as §4, with “The experiments were repeated at least 3 times using independent biological replicates with similar results.” left out
Supplementary file pgen.1007053.s004.pdf: S4 Fig Analyses of root growth of Arabidopsis seedlings treated with AtRALF1 peptide for 8 days and evaluated daily. Four-day-old seedlings were transferred to media containing different concentrations of AtRALF1, and the primary root length was measured daily during the 8 days of treatment. Genotypes Wt, bak1-1, bak1-3 and bak1-4 are indicated on top of each series of graphics. The seedlings were treated with 0, 0.5, 1, 5 and 10 μM AtRALF1. The data represent the mean values ± SD of 30 seedlings. Double and triple asterisks indicate P < 0.05 and P <0.01, respectively (Student’s t test); ns, not significant. (PDF) Click here for additional data file.
Four-day-old seedlings were transferred to medium containing 10 μM AtRALF1, and the primary root length was measured after 8 days of treatment. The data represent the mean value ± SD of 20 seedlings. Triple asterisks indicate P < 0.01 (Student’s t test); ns, not significant. Representative Arabidopsis seedlings after 8 days of treatment with AtRALF1 are shown. The seedlings were arranged on plates after the treatment for imaging. Scale bars, 1 cm. (PDF) Click here for additional data file.
Four-day-old seedlings were transferred to medium containing 0.1 μM BAP, and the primary root length was measured after 8 days of treatment. The data represent the mean value ± SD of 10 seedlings.

In the case of “acriAtRALF1: acridinium-labeled AtRALF1; acridinium ester conjugated to the N-terminal of the peptide ({acridinium ester}-ATTKYISYQSLKRNSVPCSRRGASYYNCQNGAQANPYSRGCSKIARCRS; ends and bridges not checked)”, the “reduction of total acriAtRALF1 binding vs wild-type” value is reported as 30% in assay [1] (bak1-1 seedlings, 15 min); 29% in assay [1] (bak1-3 seedlings, 15 min); 31% in assay [1] (bak1-4 seedlings, 15 min); “approximately 15%” in assay [2] (microsomal fractions of bak1 mutants, 7 nM, 4 °C). Moreover, the “reduction of total acriAtRALF1 binding, wild-type vs bak7” value in assay [1] (bak7 mutants, 15 min) is “no differences in the reduction of total binding between wild-type and bak7 mutants were observed”. Besides, the “reduction of total acriAtRALF1 binding” value in assay [1] (fer4 mutants, 20 min (S17C Fig)) is on record as “approximately 48%”. Also, the “source of acriAtRALF1 chemiluminescent signal” value in assay [1] (whole seedlings vs only roots (S17B Fig)) is reported as “the roots were the only source of the chemiluminescent signal”. For the same compound, in assay [2] (microsomal fractions), the “nature of acriAtRALF1 binding” value was “specific and saturable”. Also, the “increase in cytoplasmic Ca^2+” value in assay [3] is listed as “induced an increase in cytoplasmic Ca^2+”.

Regarding “AtRALF23: Arabidopsis RALF isoform (ATRRYISYGALRRNTIPCSRRGASYYNCRRGAQANPYSRGCSAITRCRRS; ends and bridges not checked; cysteine pairing not given here; UniProt Q9LUS7 89-138, looked up) [reference compound]”, the “alkalinization of the extracellular medium” value in assay [4] is “alkalinizes the extracellular medium of cell suspensions”. The results for the “primary root growth inhibition” value in assay [5] and in assay [6] were “inhibited the primary root growth” and “inhibits the primary root growth of wild-type Arabidopsis plants”, respectively.

Regarding `c1ccc(CNc2ncnc3nc[nH]c23)cc1` [6-benzylaminopurine (BAP), 6-benzylaminopurine, reference compound], the root growth inhibition result in assay [7] is listed as “capable of inhibiting the root growth of bak1 mutants”.
